This assay has as its target T1, Farnesyl protein transferase (FPT) (Homo sapiens, UniProt P49354+P49356).
T1 construct: partially purified from human placenta by ammonium sulphate fractionation; from tissue; host or cells: human placenta
The assay is described as follows: Farnesyl protein transferase (FPT) inhibition, tritiated farnesyl pyrophosphate incorporation into Kras (ras-CVIM). It counts as biochemical. Particulars: FPT partially purified from human placenta; 300 nM tritiated farnesyl pyrophosphate, 120 nM ras-CVIM, 20 minutes at 37°. On the procedure:
Biological activity was tested as follows. Farnesyl protein transferase (FPT) was partially purified from human placenta by ammonium sulphate fractionation followed by a single Q-Sepharose® (Pharmacia, Inc) anion exchange chromatography essentially as described by Ray and Lopez-Belmonte (Ray K P and Lopez-Belmonte J (1992) Biochemical Society Transations 20 494-497). The substrate for FPT was Kras (CVIM C-terminal sequence). The cDNA for oncogenic val12 variant of human c-Ki-ras-2 4B was obtained from the plasmid pSW11-1 (ATCC). This was then subcloned into the polylinker of a suitable expression vector e.g. pIC147. The Kras was obtained after expression in the E. coli strain, BL21. The expression and purification of c-KI-ras-2 4B and the val12 variant in E. coli has also been reported by Lowe et al (Lowe P N et al. J. Biol. Chem. (1991) 266 1672-1678).
Incubations with enzyme contained 300 nM tritiated farnesyl pyrophosphate (DuPont/New England Nuclear), 120 nM ras-CVIM, 50 mM Tris HCl pH 8.0, 5 mM MgCl2, 10 μM ZnCl2, 5 mM dithiotheitol and compounds were added at appropriate concentrations in DMSO (3% final concentration in test and vehicle control). […] Precipitated protein was then collected onto glass fibre filter mats (B) using a Tomte® cell harvester and tritiated label was measured in a Wallac®1204 Betaplate scintillation counter.

Experimental findings from patent publication US6946468B1, “3-mercaptopyrrolidines as farnesyl protein transferase inhibitors” (Zeneca Limited, priority 1996, dated 2005) are described below.

Broadly, the IC50 is the midpoint of a concentration-inhibition curve. High values mean lower potency, low ones higher potency. In the case of `O=C(Cc1cccnc1)N(CC(c1ccccc1)c1ccccc1)C[C@@H]1NCC[C@@H]1S` (relative stereo) [Example 2], the IC50 is around 420 nM.
